Test system: CP362 bacteria overexpressing the Tar receptor (pNT201)
Test: Swarm assay on TB semi-solid agar (chemotaxis)
Assay type: cell-based, Escherichia coli
Settings: 20 μM peptide, 35° C.

Sequence	expansion speed / chemotactic behavior of the bacteria
KKKMVLGVFALLQLISGSLKK [Tar-1 all-L, peptide corresponding to the transmembrane domain 1 of Tar, reference compound]	significantly reduced
KKKMVLGVFALLFLIGGSLKK [F/G mutant peptide]	no significant effect
